Entries after “also recorded” stand apart in the source; their conditions may differ. Like-named read-outs stand apart in the source and are kept apart here. Values belong to the substance of their own block, whether it stands above or below them. Square brackets hold non-standard residues; d marks the D form. Ends that are not written are not given here.
Tests used:
human artery wall cells = settings: cited from earlier work; for inhibition of LDL-induced MCP-1 production by cultured human artery wall cells: Datta et al. (2001); for inhibiting monocyte chemotactic activity production by human artery wall cells exposed to human LDL: FIG. 1, adapted from Datta et al. (2001)
[1] = tested on: mouse model of ovarian cancer; settings: cited from earlier work
apoE−/− mice [2] = settings: cited from earlier work
mice [3] = assay: 4F peptide without end groups in mice; format: in vivo
Description: The 4F peptide (Ac-D-W-F-K-A-F-Y-D-K-V-A-E-K-F-K-E-A-F-NH2, (SEQ ID NO:1)) has end blocking groups (Ac— and —NH2) that stabilize the class A amphipathic helix and dramatically increase efficacy (Venkatachalapathi et al. (1993) Proteins Structure Function Genet. 15: 349-359; Yancey et al. (1995) Biochemistry. 34: 7955-7965; Datta et al. (2001) J. Lipid Res. 42: 1096-1104; Anantharamaiah et al. (2007) J. Lipid Res., 48: 1915-1923). […] The required end (protecting) groups for 4F and for a number of other apoA-I mimetic peptides (Navab et al. (2010) Arterioscler. Thromb. Vasc. Biol. 30: 164-168) can only be added by chemical synthesis; living organisms cannot be engineered to make a molecule containing these end groups. Thus, the production of peptide for clinical use at these doses would not be practical because of the cost of producing this amount of peptide by solid phase synthesis.
Unfortunately, producing sufficient peptide to make therapy in humans practical was not likely because the 4F peptide requires end blocking groups that can only be added through chemical synthesis. […] This led us to seek alternative peptides synthesized from all L-amino acids that might be effective without end blocking groups.

cholesterol-fed rabbits = settings: 10 mg/kg/day; cited from earlier work
[4] = tested on: LDL-induced monocyte chemoattractant protein-1 (MCP-1) production by cultured human artery wall cells; settings: cited from earlier work
[5] = in vivo; cited from earlier work
[6] = tested on: apoE−/− mice made diabetic; settings: oral administration; cited from earlier work
LDLR−/− mice [7] = settings: cited from earlier work
LDLR−/− mice [8] = settings: cited from earlier work; for intact peptide in plasma after oral administration: mouse, in vivo; for inflammatory properties of HDL and LDL in a cell-based assay: single dose 5 mg/kg by stomach tube, four hours, 5 mg/kg
[9] = tested on: enzymes involved in the formation of LPA; assay: Microarray of gene expression in the small intestine; format: in vivo, mice; settings: Western Diet or chow, D-4F in drinking water
Protocol: To explore the mechanism of action, a microarray experiment to determine gene expression levels in the small intestine from mice fed the Western Diet or a chow diet and given or not given D-4F in their drinking water was performed. It was previously shown that D-4F administration reduces LPA levels similar to transgenic 6F tomatoes.

[10] = tested on: apolipoprotein (apo)E null mice; settings: cited from earlier work
apoE−/− mice [11] = settings: cited from earlier work; remark: listed apart in the source
[12] = Identification and quantification of 6F in small intestine and plasma; format: in vivo, mice
Protocol: Female LDLR−/− mice 8-9 months of age (n=6) were fasted overnight and fed WD with transgenic 6F lyophilized tomato powder added to WD to provide 900 μg of 6F in 2 grams of diet. Over a period of 30-90 minutes, each mouse ate all of the 2 grams of diet. Approximately 2 hours after finishing the food the mice were bled and the small intestine was obtained (including contents), homogenized in acetonitrile:water (1:1), chromatographed by HPLC and subjected to SDS PAGE as described in Materials and Methods of Example 3. Plasma was lyophilized and resuspended in acetonitrile:water (1:1), chromatographed by HPLC and subjected to SDS PAGE as described in Materials and Methods of Example 3. […] The lanes were scanned for quantification as described in Materials and Methods of Example 3.
For analysis of the small intestine, 200 mg of small intestine (including contents) were homogenized in 10 mL of acetonitrile:water (1:1) and the homogenates were lyophilized and re-suspended in 400 μL of acetonitrile:water (1:1). […] Samples were run on HPLC using a C-18 Reverse Phase analytical column and a gradient solvent system of acetonitrile: water (30% to 80% in 20 min) in the presence of 0.1% TFA and monitored at 280 nm. […]
The data presented above indicate that the peptide in the transgenic 6F tomatoes is acting in the small intestine. […] No 6F peptide was detected in the plasma of any of the six mice. […]

mice [13] = settings: mouse, in vivo; cited from earlier work
[14] = doses of 4.5 and 45 mg/kg, oral or SQ

Substance: Ac-D-W-F-K-A-F-Y-D-K-V-A-E-K-F-K-E-A-F-NH2 (Ac-DWFKAFYDKVAEKFKEAF-NH2) [4F]
- inhibition of LDL-induced MCP-1 production by cultured human artery wall cells (human artery wall cells): highly effective
- inhibiting monocyte chemotactic activity production by human artery wall cells exposed to human LDL (human artery wall cells): indistinguishable
- number of tumor nodules ([1]; mouse, in vivo): reduction
- tumor volume ([1]; mouse, in vivo): significant reduction
- plasma levels of free oxidized fatty acids (5-HETE, 15-HETE, 9-HODE, 13-HODE) (apoE−/− mice [2]; after administration of the 4F peptide): significantly decreased
- esterified oxidized fatty acid levels (apoE−/− mice [2]; mouse, in vivo): unchanged
- plasma levels of 20-HETE (apoE−/− mice [2]; mouse, in vivo): did not decrease
- fold less effective in vivo in the absence of the end groups (mice [3]; mice, without Ac- and -NH2 end groups, unpublished studies): 25,000 fold

Substance: Ac-D-W-F-K-A-F-Y-D-K-V-A-E-K-F-K-E-A-F-NH2 [D-4F] (Ac-[dD][dW][dF][dK][dA][dF][dY][dD][dK][dV][dA][dE][dK][dF][dK][dE][dA][dF]-NH2)
- efficacy of L-4F and D-4F by injection (cholesterol-fed rabbits): identical
- HDL inflammatory index (HII) ([4]; oral doses of 0.43 and 1.43 mg/kg): not effective
- HDL inflammatory index (HII) ([4]; oral doses of 4.3 and 7.14 mg/kg): significantly improved
- clearance from tissues, particularly liver and kidney [5]: delayed clearance
- aortic atherosclerosis [6]: significantly decreased
- hepatic content of free arachidonic acid and free oxidized fatty acids [6]: significantly decreased
- other plasma lipid or lipoprotein levels [6]: without affecting
- changes in SAA, triglycerides, HDL-cholesterol and paroxonase activity induced by feeding 15-HETE in chow (LDLR−/− mice [7]; SQ D-4F, chow without WD): significantly ameliorated
- HDL-cholesterol (LDLR−/− mice [7]; SQ or oral): increased
- plasma SAA levels (LDLR−/− mice [7]; SQ or oral): reduced
- plasma triglyceride levels (LDLR−/− mice [7]; SQ or oral): reduced
- levels of 20-HETE (LDLR−/− mice [7]; SQ or orally): unchanged
- levels of free metabolites of arachidonic and linoleic acids in intestine, liver and hepatic bile (LDLR−/− mice [7]; SQ or orally): significantly reduced
- intact peptide in plasma after oral administration (LDLR−/− mice [8]): intact peptide identified
- inflammatory properties of HDL and LDL in a cell-based assay (LDLR−/− mice [8]): dramatically and significantly improved
- expression of enzymes involved in the formation of LPA [9]: none of the enzymes involved in the formation of LPA changed their expression significantly
- reduction of aortic atherosclerosis ([10]; 45 mg/kg/day, Western diet, orally or SQ): ~50%
- plasma levels of SAA ([10]; 45 mg/kg/day, Western diet): significantly reduced
- plasma levels of lysophosphatidic acid ([10]; 45 mg/kg/day, Western diet): significantly reduced
- HDL inflammatory index ([10]; doses of 0.15 or 0.45 mg/kg): did not
- plasma serum amyloid A (SAA) levels ([10]; doses of 0.15 or 0.45 mg/kg): did not
- HDL inflammatory index [10, 14]: significantly reduced
- plasma serum amyloid A (SAA) levels [10, 14]: significantly reduced

Substance: Ac-D-W-F-K-A-F-Y-D-K-V-A-E-K-F-K-E-A-F-NH2 [L-4F] (Ac-DWFKAFYDKVAEKFKEAF-NH2)
- efficacy of L-4F and D-4F by injection (cholesterol-fed rabbits): identical
- aortic lesions (apoE−/− mice [11]; L-4F administered with niclosamide): induced lesion regression
- aortic atherosclerosis (apoE−/− mice [11]; in chow 10 mg/kg/day for six months with low dose statin in drinking water): did not significantly change
- HDL inflammatory index (HII) ([4]; 0.042-1.43 mg/kg IV or SQ): no improvement
- clearance from tissues, particularly liver and kidney [5]: this was not the case
- LPA levels ([1]; L-4F containing blocking groups, b323: in mouse chow, 100 mg/kg/day): significantly reduced; also recorded: significantly decreased
- tumor burden ([1]; in mouse chow, 100 mg/kg/day): significantly decreased
- intact peptide in plasma after oral administration (LDLR−/− mice [8]): virtually no intact peptide
- inflammatory properties of HDL and LDL in a cell-based assay (LDLR−/− mice [8]): not

Substance: DWFKAFYDKFFEKFKEFF [7F, apoA-I mimetic peptide]
- inhibition of LDL-induced MCP-1 production by cultured human artery wall cells (human artery wall cells): did not

Substance: DWFKAFYDKVAEKFKEAF [4F peptide without end blocking groups, 4F peptide lacking the Ac- and -NH2 end groups]
- activity of the peptide without end blocking groups (mice [3]; mouse models, data not shown): dramatically reduced

- 6F peptide in the plasma (not detected; lower limit of detection) ([12]; ~2 hours after eating 900 μg of 6F in transgenic 6F tomato powder): < 100 ng/mL
Substance: DWLKAFYDKFFEKFKEFF [6F, D-W-L-K-A-F-Y-D-K-F-F-E-K-F-K-E-F-F]
- intact 6F peptide in the small intestine (Mean±SD) ([12]; ~2 hours after eating 900 μg of 6F in transgenic 6F tomato powder in 2 grams of WD, n=6): 15.6±7.4 μg 6F per 200 mg small intestine

Substance: DWLKAFYDKVAEKLKEAF [2F, apoA-I mimetic peptide with phenylalanine at positions 6 and 18]
- diet induced atherosclerosis in mice (mice [13]): failed to decrease
- inhibition of LDL-induced MCP-1 production by cultured human artery wall cells (human artery wall cells): not very effective

Substance: DWLKAFYDKVFEKFKEFF [5F, apoA-I mimetic peptide]
- diet induced atherosclerosis in mice (mice [13]): inhibiting atherosclerosis
- tumor angiogenesis in mice (mice [13]): inhibiting tumor angiogenesis
- inhibition of LDL-induced MCP-1 production by cultured human artery wall cells (human artery wall cells): able to efficiently inhibit
- inhibiting monocyte chemotactic activity production by human artery wall cells exposed to human LDL (human artery wall cells): indistinguishable

From patent publication US9539300B2, “Modulating disease through genetic engineering of plants” (The Regents of the University of California, priority 2012, dated 2017)
